One series addresses T1, CYP1A2 (Homo sapiens, UniProt P05177).
T1 construct: from tissue; host or cells: human liver microsomes
T1 sequence (P05177 1-516): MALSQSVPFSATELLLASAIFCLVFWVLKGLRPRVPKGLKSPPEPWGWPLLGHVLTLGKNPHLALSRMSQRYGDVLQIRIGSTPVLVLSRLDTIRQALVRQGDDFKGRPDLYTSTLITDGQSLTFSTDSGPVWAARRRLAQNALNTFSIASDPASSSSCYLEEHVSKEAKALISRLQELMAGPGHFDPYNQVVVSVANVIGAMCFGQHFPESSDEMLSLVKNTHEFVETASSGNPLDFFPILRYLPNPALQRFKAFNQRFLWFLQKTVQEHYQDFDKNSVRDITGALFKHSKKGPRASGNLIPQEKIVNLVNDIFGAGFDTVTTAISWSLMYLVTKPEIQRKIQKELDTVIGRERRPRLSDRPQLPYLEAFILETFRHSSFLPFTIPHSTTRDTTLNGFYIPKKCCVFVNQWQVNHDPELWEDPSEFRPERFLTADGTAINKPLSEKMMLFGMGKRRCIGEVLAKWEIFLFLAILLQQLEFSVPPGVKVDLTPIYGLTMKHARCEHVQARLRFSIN
Briefly: CYP inhibition evaluation in human liver microsomes. Type of series: in vitro ADME. From the text:
Example A5: CYP Inhibition Evaluation in Human Liver Microsomes
In general terms: Liver microsomes are vesicles of endoplasmic reticulum, rich in cytochrome P450 enzymes.

A short description of series [1]: Microsome stability evaluation in rat liver microsomes. It counts as in vitro ADME. As to conditions: read-out: Rat microsome, t½. An excerpt: (§1) Example A6: Microsome Stability Evaluation in Human and Rat Liver Microsomes
The nature of series [2]: Microsome stability evaluation in human liver microsomes. As to conditions: read-out: Human microsome, t½. It counts as in vitro ADME.
Excerpt: as §1

Series [3] can be described thus: Solubility in JP1, JP2 and FaSSIF buffers. It counts as physicochemical. As to conditions: 25 °C, thermodynamic from solid, room temperature. The method, then:
Conditions: 1. JP1 buffer (84 mM HCl, 34.22 mM NaCl, pH 1.2); 2. JP2 buffer (50 mM phosphate buffer at pH 6.8); 3. FaSSIF buffer, pH 6.5 (Preparation: In about 0.9 L of purified water dissolve 0.420 g of NaOH (pellets), 4.470 g of NaH2PO4 (dihydrate), 6.186 g of NaCl; Adjust the pH to 6.5 with Sodium hydroxide 1N or Hydrochloric acid 1N, to make up to volume (1 L) with purified water at room temperature; Add 0.224 g of SIF Powder Original to about 0.5 L of pH 6.5 blank buffer and stir until powder is completely dissolved; Let stand for 2 hour. FaSSIF buffer is now ready to use.
Procedures: 1. accurately weighed about 2 mg test compounds and controls in whatman vials, then transferred 450 μL buffer in to the vials; 2. Filter pistons of miniuniprep vials were placed and compressed to the position of the liquid level to allow for contact. Vortexed for 2 minutes; 3. […] Miniunipreps were compressed to prepare the filtrates for injection into HPLC system; 5. Diluted the filtrates with buffer by a factor of 50 fold to make diluents; 6. Determined the test compound concentration of the diluents and filtrates using HPLC-UV.

Series [4] can be described thus: Pharmacokinetic study in rats (plasma and red blood cell). It counts as in vivo. Conditions: male, Sprague-Dawley, rat, oral, 7.2 mg/kg. The protocol: Rats (Sprague-Dawley, male, 220-280 g) were dosed with GBT-440 (HCl salt) and one of three compounds corresponding to Example 27, 29, and 38. The rats received oral (7.2 mpk) doses of the compound. Rats were fasted overnight before the experiments and provided with food four hours after dosing. The oral dosing formulations was prepared as follows: approximately 10 mg of compound was weighed precisely to an appropriate size of container, to which was added 2 mL of vehicle 0.5% methylcellulose in water and 8 μL 0.5% sodium dodecyl sulfate. The mixture was then transferred into a glass vial, and volume adjusted to appropriate volume with 0.5% methylcellulose to obtain a final concentration of 0.72 mg·mL^−1, and then vortexed and sonicated briefly.
Whole blood sample collection: Blood samples ([…]) were collected at pre-dose, 15, 30 min, 1, 2, 4, 8, 12 and 24 h via jugular vein into tubes and anticoagulated with 3.2% TSC (trisodium citrate). The proportion of anticoagulant and blood was 1:9 (v/v). The sampling time was recorded accordingly. The tubes were gently inverted several times to ensure mixing. Then 10 μL doses of whole blood sample was transferred to a new EP tube and duplicated in wet ice.
Plasma sample collection: The remaining whole blood was processed by centrifugation at 5,500 rpm for 10 min. The supernate was collected. All these whole blood and plasma samples were kept below −20° C. for 1 h prior to analysis.
Plasma sample preparation: An aliquot of 20 μL of sample was transferred to sample treatment tube (1.5 mL EP tube), and then 100 μL ACN (0.5% FA) containing Verapamil, 5 ng·mL^−1 and Glibenclamide, 50 ng·mL^−1 for protein precipitation was added. The mixture was vortexed for 30 min, and then centrifuged at 13000 rpm for 5 min at room temperature. After that, 70 μL of supernatant was transferred to a 96-Well Plate, to which 70 μL of water added and then vortexed for 10 min at room temperature. An aliquot of 10 μL of this mixture was analyzied using LC-MS/MS.
Whole blood sample preparation: An aliquot of 10 μL of sample was transferred to sample treatment tube (1.5 mL EP tube), and then 500 μL ACN (0.5% FA) containing Verapamil, 5 ng·mL^−1 and Glibenclamide, 50 ng·mL^−1 for protein precipitation was added. The mixture was vortexed for 30 min, and then centrifuged at 13000 rpm for 5 min at room temperature. After that, 70 μL of supernatant was transferred to a 96-Well Plate, to which 70 μL of water was added and then vortexed for 10 min at room temperature. An aliquot of 10 μL of this mixture was analyzed using LC-MS/MS.
Plasma and red blood cell concentration-time data were processed by linear regression analysis. All pharmacokinetic parameters were calculated using non-compartment model of Pharsight Phoenix 6.3.
Red blood cell concentrations were calculated according to the method below: Mass balance equation: Cb·VB=Cp·Vp+CBC·VBC Where, Cb=Concentration of whole blood; VB=Volume of whole blood; Cp=Concentration of plasma; Vp=Volume of plasma; CBC=Concentration of blood cell; VBC=Volume of blood cell. VBC=H·VB, where H is the hematocrit number. Vp=(1−H)·VB

The values that follow come from US10787430B2, “Hemoglobin modifier compounds and uses thereof” (FronThera U.S. Pharmaceuticals LLC, priority 2016, dated 2020).

Converted amounts (≈) assume the structure as drawn. Where two headings read alike, the source gives them in different places.

On to `[2H]C([2H])(Oc1cccc(O)c1C=O)c1cncnc1-c1ccnn1C(C)C` [Example 38, 2-hydroxy-6-((4-(1-isopropyl-1H-pyrazol-5-yl)pyrimidin-5-yl)methoxy-d2)benzaldehyde], for which the 50% inhibitory concentration (IC50) at CYP1A2 is over 30 µM. The half-life was 0.3 h in series [1]; 0.633 h in series [2]; 11 h in series [4] (red blood cells, red blood cell, read-out: T1/2 RBC (converted)); 11 h in series [4] (plasma, read-out: T1/2 Plasma (converted)). The solubility at 24 h is 15.1 µg/mL (≈ 44.4 µM) in series [3] (aqueous buffer, JP2 buffer (50 mM phosphate) pH 6.8, 24 hr, read-out: JP2 Solubility); 20 µg/mL (≈ 58.6 µM) in series [3] (simulated gastric fluid, JP1 buffer pH 1.2, 24 hr, read-out: JP1 Solubility); 26.6 µg/mL (≈ 78.1 µM) in series [3] (FaSSIF buffer pH 6.5, 24 hr, read-out: FaSSIF Solubility). Further, the AUC(0-t) is 1730 µg·h/mL in series [4] (red blood cells, red blood cell (calculated by mass balance from whole blood and plasma), read-out: AUC0-24 h RBC); 10.7 µg·h/mL in series [4] (plasma, read-out: AUC0-24 h Plasma). Also, the Cmax is 116 µg/mL in series [4] (red blood cells, red blood cell (calculated by mass balance from whole blood and plasma), read-out: Cmax RBC); 0.753 µg/mL in series [4] (plasma, read-out: Cmax Plasma).

In general, IC50 refers to the concentration at which inhibition is half-maximal. One may read the solubility as the dissolved amount per volume that the medium holds. The Cmax is the peak of the concentration-time curve.
